Consider nine molecules from patent publication US9351971B2, “Substituted 2,2′-biphenazines for treating diseases” (Eutropics Pharmaceuticals, Inc., priority 2010, dated 2016).

Read-outs that look alike come from different tables or passages of the source.

Assay [1] addresses T1, Mcl-1 (Homo sapiens, UniProt Q07820).
T1 construct: made in house; host or cells: E. coli
The assay is described as follows: Fluorescence polarization assay, Bim BH3 peptide binding to GST-Mcl-1. From the text:
(§1) A nineteen amino acid peptide, corresponding to the BH3 domain of Bim, with the sequence FITC-GGGIAQELRRIGDEFNAY (SEQ ID NO: 1) was labeled with the tluorophore FITC according to the manufacturer's instructions (Molecular Probes, Eugene, Oreg.). This sequence was identified as being able to bind to purified Bcl-xL protein (Sattler et al. (1997) Science 275(5302): 983-86) and to have biological activity in cells (Holinger et al. J. Biol. Chem. 274; 13298-1330).
(§2) In addition, recombinant GST -Mcl-1 and GST-Bcl-xL fusion proteins were generated in E.coli and purified using glutathione-sepharose beads using conventional techniques known to those skilled in the fields of biochemistry and molecular biology, (methods for preparation are described in Strategies for Protein Purification and Characterization, Marshak, D, Kadonga, J, Burgess R, Knuth, M, Brennan, W, Sue-Hwa, L, CSH press, Cold Spring Harbor, N.Y.). Binding of the recombinant proteins to the fluorescent Bim BH3 domain was confirmed by titration of increasing concentrations of the recombinant proteins against a constant amount of labeled Bim peptide (16.65 nM). Quantitation of binding was accomplished by FP assay with mP measurements made on the Analyst-GT reader (Molecular Devices, Sunnyvale, Calif.).
Further, the ability of compound A to disrupt the interaction between the fluorescent Bim BH3 peptide and the two fusion proteins was assessed using a fluorescence polarization assay. The Bim peptide (in solution at 4 nano-Molar) and either GST-Mcl-1 (in solution at 12.5 nM) or GST-Bcl-xL (in solution at 11.8 nM) were first combined together in phosphate buttered saline buffer, and then the compound solution in DMSO was added to final concentrations ranging from 10 μM to 0.1 nM). Normally the unbound Bim polypeptide results in polarization of 5 mP units. Upon binding of the GST-Bcl-xL and GST-Mcl-1 fusion protein, polarization increased to 100 mP units.
Experiments are performed using the fluorescence polarization assay as described in Example 2. Either Bcl-xL or Mcl-1 fusion proteins were titrated and maximum mp shift indicate binding concentrations for drug titration studies, as described in Example 2. Compound II-19, was titrated from 10 μM to 0.1 nM in 2 fold serial dilution into the peptide/protein solution. The IC50 for blocking each BH3 peptide from Mcl-1 are assessed using FP, as described in Example 2.
Experiments are performed using the fluorescence polarization assay as described in Example 2. Either GST-Bcl-xL or GST-Mcl-1 fusion proteins were titrated and maximum mp shift indicate binding concentrations for drug titration studies, as described in Example 2. Compound II-20, was titrated from 10 μM to 0.1 nM in 2-fold serial dilution into the peptide/protein solution. The IC50 for blocking each BH3 peptide from Mcl-1 are assessed using FP, as described in Example 2.

Assay [2] concerns SUDHL-6 lymphoid cell line. Description: Cell viability MTS assay, SUDHL-6. Conditions: Homo sapiens, SU-DHL-6, 48 hours. Type of assay: cell-based. Here is the method:
(§3) The lymphoid derived cell lines DHL-6 and DHL-10 were obtained from Anthony Letai of the Dana Father Cancer Research Institute, Boston, Mass. The […] derived cell line NCP-H929 was obtained irons, the NIH/NCI cell repository. AML-3 cells were obtained from Dr. Michael Andreef (MD Anderson Cancer Center, Houston, Tex.). Cells were grown in RPMI 1640 medium (GIBCO-BRL) supplemented with Pen-strep-glutamine (Gibco 10378) and 5% fetal bovine serum.
(§4) Cells were expanded in tissue culture in appropriate media and then subcultured into 96-well plates at a seeding density of 20,000-40,000 cells per well, and cells were treated with one or more compounds that were titrated info appropriate medium with FCS. Cell lines were treated with compound A at concentrations ranging from 25 μM to 25 nM. The BH3-mimetic obatoclax (Nguyen M et al. (2007), Proc. Natl. Acad. Sci. USA 104:19512-19517) was also tested against the SUDHL-6, SUDHL-10, and NCI-H929 cell lines. Cells were treated for 48 hours and scored for viability using the MTS assay (Promega). Growth inhibition was indicated as a percentage of control cell growth. Growth was determined by measuring the A570 (control cells)—A570 (treated cells)/A570 (control cells). EC50 values were calculated using Graphpad Prizm software.
On the technique in general: Tetrazolium assays rely on reduction of a dye to a coloured formazan, in cell work by metabolically active cells.

Assay [3] has as its system SUDHL-10 cell line. The assay is described as follows: Cell viability MTS assay, SUDHL-10 (Bax/Bak deficient). Type of assay: cell-based, human. Particulars: Homo sapiens, SU-DHL10, 48 hours, MTS assay, Bax/Bak deficient cell line. Here is the method: as §3, §4
Assay [4] has as its target T2, Bcl-xL (Homo sapiens, UniProt Q07817).
T2 construct: made in house; host or cells: E. coli
The assay is described as follows: Fluorescence polarization assay, Bim BH3 peptide binding to GST-Bcl-xL. Conditions: Bim-BH3-FITC peptide, read-out: IC50, inhibition of Bim-BH3 peptide binding to Bcl-xL.
Source text: as §1, §2
Further, the ability of compound A to disrupt the interaction between the fluorescent Bim BH3 peptide and the two fusion proteins was assessed using a fluorescence polarization assay. […]
(§5) Experiments are performed using the fluorescence polarization assay as described in Example 2. […] The IC50 for blocking each BH3 peptide from Mcl-1 are assessed using FP, as described in Example 2.
as §5

In assay [5] the test system is NCI-H929 multiple myeloma cell line. Description: Cell viability MTS assay, NCI-H929. The class given is cell-based. Conditions: Homo sapiens, 48 hours, read-out: EC50 in NCI-H929 (obatoclax). Here is the method: as §3, §4
The test system of assay [6] is NCI H929 tumors. The assay is described as follows: NCI H929 human myeloma xenograft model in mice. Particulars: bortezomib 1 mg/kg i.p. once every 3 days for 15 days; vehicle 2300 mm^3. The class given is in vivo, mouse. As for the experimental part: Cell Culture: Tumor cell line NCI H929 was cultured according to ATCC recommendations in […] containing 10% fetal bovine serum and pen-strep. On the day of implantation, cells were washed 1× with phosphate buffered saline (PBS) and harvested via centrifugation. Cells were pelleted (5 min at 1000 rpm, RT) then resuspended in serum-free matrigel and kept on ice until implantation.
Tumor Cell Implantation: The cell line was implanted via subcutaneous injection on the right rear flank at a volume of 200 μl containing 3×10^7 cells per mouse; the injection site was cleaned using alcohol before and after injection to prevent any infection.
Tumor Assessment: Beginning 1 week post cell implantation all animals were weighed and tagged and tumors were measured and body weights taken 3 times weekly (length×width×height) on Monday, Wednesday, and Friday for the duration of study. Once an average tumor volume of 100-200 mm^3 was reached, animals were randomized and placed into 4 treatment groups of a minimum of 10 mice per group based on tumor size. Randomization was determined by tumor volume (length×width×height)[…] for all of the mice and average volume was calculated using a average function in Excel (Microsoft Professional).
Treatment: The study involved 4 groups of 10 animals per group. Animals in all dose groups were weighed on days of tumor measurement. All doses were administered i.p. at 10 mL/kg. The Bortezormib (1 mg/kg) group was once every 3 days for 15 days. The mice receiving vehicle and compound II-19 were dosed every second day. Compound II-19 was formulated in 1% DMSO, 10 mM Tris pH 8, 30% hydroxypropyl-beta-cyclodextrin; this vehicle was used as the “vehicle” control. Bortezomib was formulated in 30% propylene glycol, 5% Tween 80, 3.3% dextrose in water, pH 4, 1% DMSO.
For orientation: In xenograft studies the graft and the host belong to different species.

The mark [7] stands for this setting: fluorescent polarisation assay of Examples 2 and 3, read-out: IC50, inhibition of MCL1.

T1 sequence (Q07820 whole entry): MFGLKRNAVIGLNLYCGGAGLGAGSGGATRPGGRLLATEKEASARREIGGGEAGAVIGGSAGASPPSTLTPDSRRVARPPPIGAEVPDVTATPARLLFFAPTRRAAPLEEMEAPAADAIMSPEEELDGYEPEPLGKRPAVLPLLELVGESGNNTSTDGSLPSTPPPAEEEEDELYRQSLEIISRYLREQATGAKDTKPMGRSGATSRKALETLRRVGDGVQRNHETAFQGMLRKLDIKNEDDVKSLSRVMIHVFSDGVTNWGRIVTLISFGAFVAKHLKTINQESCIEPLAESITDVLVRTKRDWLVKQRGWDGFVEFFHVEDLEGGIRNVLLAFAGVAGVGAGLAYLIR
T2 sequence (Q07817 whole entry): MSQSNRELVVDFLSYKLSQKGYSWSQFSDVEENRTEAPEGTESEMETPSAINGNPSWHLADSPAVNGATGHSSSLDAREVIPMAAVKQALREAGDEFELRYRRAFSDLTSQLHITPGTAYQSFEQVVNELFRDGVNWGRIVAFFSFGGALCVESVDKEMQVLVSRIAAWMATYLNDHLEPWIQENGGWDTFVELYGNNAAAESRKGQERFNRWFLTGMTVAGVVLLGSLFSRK

With `COc1cc(-c2ccc(Nc3cnccc3C(=O)O)c(OC)c2)ccc1Nc1ccccc1C(=O)O` [Ic-8], the IC50 (commonly the concentration that inhibits the measured activity by half) in assay [1] (setting [7]) was under 50000 nM.
Still for that read-out and setting: as for `COc1cc(-c2ccc(Nc3ccc(C)cc3C(=O)O)c(OC)c2)ccc1Nc1ccccc1C(=O)O` [Ic-7, 2-((4′-((2-carboxyphenyl)amino)-3,3′-dimethoxy-[1,1′-biphenyl]-4-Yl)amino)-5-methylbenzoic acid], the figure is under 50000 nM; as for `COc1cc(-c2ccc(Nc3cccc(C(=O)O)c3)c(OC)c2)ccc1Nc1cccc(C(=O)O)c1` [Ic-1, 3,3′-((3,3′-dimethoxy-[1,1′-bipenyl]-4,4′-diyl)bis(azanediyl))dibenzoic acid], under 50000 nM.
For `COC(=O)c1ccc(O)c2nc3c(CO)c(O)c(-c4c(O)c(CO)c5nc6c(O)ccc(C(=O)OC)c6nc5c4O)c(O)c3nc12` [II-20, dimethyl 1,1′,3,3′,6,6′-hexahydroxy-4,4′-bis(hydroxymethyl)-[2,2′-biphenazine]-9,9′-dicarboxylate], the EC50 (commonly the concentration at which the effect is half-maximal) is 9700 nM in assay [2] (read-out: EC50, cell killing in SUDHL-6) and over 25000 nM in assay [3] (read-out: EC50, cell killing in SUDHL-10). In addition, the IC50 in assay [1] (fluorescence polarization, Bim-BH3-FITC peptide, GST-Mcl-1, read-out: IC50, inhibition of Bim-BH3 peptide binding to Mcl-1) came to 27 nM; in assay [4] it was 122 nM. Further, the “preference for inhibition of Mcl-1 vs. Bcl-xL” value in assay [1] (ratio of FP IC50 values) was about 5 fold.
For `COC1=CC(c2cc3ccccc3[nH]2)=N/C1=C\c1[nH]c(C)cc1C` [obatoclax, reference compound], the results for the EC50 in assay [5], in assay [2] (read-out: EC50 in SUDHL-6 (obatoclax)) and in assay [3] (read-out: EC50 in SUDHL-10 (obatoclax)) were 1800 nM, 2500 nM and 800 nM, respectively.
On to `O=C(O)c1ccccc1Nc1ccc(-c2ccc(Nc3ccccc3C(=O)O)c(O)c2)cc1O` [Ic-6, 2,2′-((3,3′-dihydroxy-[1,1′-biphenyl]-4,4′-diyl)bis(azanediyl))dibenzoic acid], for which the half-maximal inhibitory concentration (IC50) in assay [1] (setting [7]) is under 50000 nM.
In the case of `CC(C)C[C@H](NC(=O)[C@H](Cc1ccccc1)NC(=O)c1cnccn1)B(O)O` [bortezomib, reference compound], the “average tumor volume at the end of the study” value in assay [6] turned out to be 1180 mm^3.
`COc1ccc(C(=O)O)c(Nc2ccc(-c3ccc(Nc4cc(OC)ccc4C(=O)O)c(OC)c3)cc2OC)c1` [Ic-18, 2,2′-((3,3′-dimethoxy-[1,1′-biphenyl]-4,4′-diyl)bis(azanediyl))bis(4-methoxybenzoic acid)]: the IC50 in assay [1] (setting [7]) was under 50000 nM.
With `COc1cc(-c2ccc(Nc3ccc(C)cc3C(=O)O)c(OC)c2)ccc1Nc1ccc(C)cc1C(=O)O` [Ic-17, 6,6′-((3,3′-dimethoxy-[1,1′-biphenyl]-4,4′-diyl)bis(azanediyl))bis(3-methylbenzoic acid)], the IC50 in assay [1] (setting [7]) was under 50000 nM.
